From patent US20160008339A1, “PSORALEN DERIVATIVES FOR PREVENTING OR TREATING HEART FAILURE OR CARDIAC HYPERTROPHY” (MAX-DELBRUCK-CENTRUM FUR MOLEKULARE MEDIZIN, priority 2012, published 2016)
“Also recorded” adds a separate entry of the source.

Tests used:
[1] = tested on: Gα12 coupled and AKAP-Lbc mediated activation of RhoA; assay: Rhotekin-based precipitation of RhoA-GTP, HEK293 transfected with Gα12QL / AKAP-Lbc; assay type: cell-based, human; conditions: 50 μmol/L, 30 min, vs DMSO
Method: HEK293 cells were seeded in 6-well plates. One day later the cells were transfected with the following plasmid DNAs:
After additional 24 hours the cells were treated with compound 31413 (50 μmol/L) or DMSO for 30 min at 37° C. Subsequently, the cells were lysed in precipitation buffer (50 mM Tris pH 7.4, 150 mmol/L NaCl, 4 mmol/L MgCl2; 10% v/v glycerol, 1% octylphenoxypolyethoxyethanol [IPEGAL]) and centrifugated 20000 g for two minutes to remove cell debris. 40 μl of the lysate were taken for the determination of the total RhoA content. The residual lysate was incubated with 40 μl GSH-sepharose coupled GST-rhotekin for one hour at 4° C. Then, the GSH-sepharose was washed twice with precipitation buffer, enriched with SDS-PAGE loading buffer and heated 5 min at 90° C. […] The ratio between total RhoA and Rho-GTP was densitometrically determined.
The activation state of RhoA was determined with a Rho binding region of the rhotekin protein, a Rho effector, immobilised on a sepharose bead in the presence and absence of compound 31413. […]
GTP-bound RhoA was detected by rhotekin precipitation (FIG. 3). The precipitation of RhoA from transfected HEK293 cells was performed with a rhotekin sepharose, and analysed with SDS-PAGE and immunoblotting with a RhoA specific antibody. […] The precipitated RhoA-GTP was separated with SDS-PAGE, blotted and detected with a specific anti-RhoA antibody.

[2] = tested on: different RhoGEF constructs; assay: Dual luciferase SRE reporter assay, other RhoGEF constructs in HEK293; assay type: cell-based, human; conditions: 50 μmol/L, vs DMSO treated control
Method: The experiments were performed following the protocol of the dual luciferase reporter assay (Promega). HEK293 cells were transfected with plasmid DNAs of two luciferases and plasmids of different exchange factors. A serum response element was located ahead of the coding luciferase sequences. Activated RhoA activates the serum response element, which enables the expression of the firefly luciferase. After 4 hours the cells were treated with compound 31413. After additional twenty four hours the cells were lysed in passive lysis buffer (Promega). The luciferase activity in the cell lysate was determined by measurement of the luminescence signal according to above mentioned protocol with 96 well plate (OptiPlate 96) and LarII- and. Stop-&Glow-substrate solutions in a micro plate reader
To rule out that other RhoGEF are influenced by the inventive compounds in their activity, HEK293 cells were transfected with different RhoGEF constructs. Additionally, as normalization control, two luciferase plasmids were added, which code for a serum response element (SRE) coupled firefly luciferase and for a Renilla luciferase, respectively. […] The luciferase activities were determined in the lysate. […] Further, the luciferase activity of the indicated RhoGEFs was analysed in absence or presence of 50 μmol/L compound 31413 (FIG. 4 B).

[3] = tested on: primary neonatal rat cardiomyocytes; assay: Beat rate of neonatal cardiomyocytes counted by light microscope; assay type: cell-based; conditions: for beat rate after PE stimulation: PE 6 h
Method: For cultivation of primary neonatal rat cardiomyocytes, hearts of two to three days old rats were obtained and quickly stored on ice in ADS buffer (116.4 mM NaCl, 5.4 mM KC, 5.6 mM dextrose, 10.9 mM NaH2PO4, 405.7 μmol/L MgSO4, 20 mM Hepes, pH 7.3). Under sterile conditions, the hearts were cleaned from blood and vessels, cut into small pieces and transferred into falcon tubes. The ADS buffer was exchanged against an enzyme solution (see table below). Within four cycles each with five ml enzyme solution and an enzyme mix comprising collagenase and pancreatin, isolated cells were released from the tissue (12 min at 37° C. in a water bath with approx. 220 rpm).
The supernatant with the isolated cells was collected, transferred in fetal calf serum (FCS, 2.5 ml on ice) and subsequently centrifugated in FCS (100 g for 3 min at 4° C.). The supernatant of the centrifugation was discarded and the pellet was resuspended in 5 ml cold plating medium. After an additional centrifugation, the pellet was resuspended in 15 ml medium, transferred into a dish and incubated for two hours at 37° C. to allow the settling of the fibroblasts. The cardiomyocytes in the supernatant were counted with a Scepter Handheld Automated Cell Counter and transferred in dishes coated with gelatine. On the following day the medium was changed.
The neonatal cardiomyocytes were seeded in 6-well plates with 1.5×10^6 cell per well. The stimulation with 100 μmol/L phenylephrine (PE) was performed for six or twenty four hours at 37° C. Untreated cells served as control. The effect of compound 31413 on the α-adrenergic stimulation of the cardiomyocytes was determined after incubation with the compound for three hours. To do this, the contraction of the cells was counted within a minute and different conditions were compared.
Isolated neonatal cardiomyocytes were used to investigate the relation between AKAP-Lbc induced RhoA activation and the contractility of the heart. After a chronic stimulation of the α1-adreno receptors (AR) with the specific agonist PE for six hours, the beats of the cardiomyocytes were counted over a period of 15 s and a beat rate per minute (bpm) was calculated. An increase of the beat rate of the cardiomyocytes from 100 bpm to 160 beats per minute could be observed. […] The beat rate of neonatal cardiomyocytes was counted with help of a light microscope.

COc1ccc(-c2coc3cc4oc(=O)c(C)c(C)c4cc23)cc1 [Compound 31413, 3-(4-methoxyphenyl)-5,6-dimethyl-furo[3,2-g]chromen-7-one]
amount of activated GTP-bound RhoA precipitated [1]: significantly decreased amount of activated GTP-bound RhoA; also recorded: less RhoA-GTP was precipitated | luciferase activity of the indicated RhoGEFs [2]: None of the investigated GEF shows a significant reduction | beat rate after PE stimulation ([3]; 2.5 μmol/L compound): normalization of the beat rate | beat rate after PE stimulation ([3]; 25 μmol/L compound): arrest | beat rate after PE stimulation ([3]; 50 μmol/L compound): arrest | phenylephrine/alpha-adrenoceptor-induced increase in cardiac myocyte beating frequency ([3]; at 2.5, 10, 25 and 50 μmol/L): prevents
